Assay results as given in patent US11730720B2, “ALK5 inhibitors” (THERAVANCE BIOPHARMA R&D IP, LLC, priority 2018, dated 2023).

Columns and labels:
[1] = biological target: T1, recombinant human ALK5 (TGF-βR1) protein (Homo sapiens, UniProt P36897); test: Biochemical ALK5 (TGF-βR1) assay to measure pKi (LANCE Ultra ULight kinase assay); conditions: apparent pKi, converted from pIC50 using the Cheng-Prusoff equation
T1 construct: purchased Life Technologies PR9075A
T1 sequence (P36897 34-503): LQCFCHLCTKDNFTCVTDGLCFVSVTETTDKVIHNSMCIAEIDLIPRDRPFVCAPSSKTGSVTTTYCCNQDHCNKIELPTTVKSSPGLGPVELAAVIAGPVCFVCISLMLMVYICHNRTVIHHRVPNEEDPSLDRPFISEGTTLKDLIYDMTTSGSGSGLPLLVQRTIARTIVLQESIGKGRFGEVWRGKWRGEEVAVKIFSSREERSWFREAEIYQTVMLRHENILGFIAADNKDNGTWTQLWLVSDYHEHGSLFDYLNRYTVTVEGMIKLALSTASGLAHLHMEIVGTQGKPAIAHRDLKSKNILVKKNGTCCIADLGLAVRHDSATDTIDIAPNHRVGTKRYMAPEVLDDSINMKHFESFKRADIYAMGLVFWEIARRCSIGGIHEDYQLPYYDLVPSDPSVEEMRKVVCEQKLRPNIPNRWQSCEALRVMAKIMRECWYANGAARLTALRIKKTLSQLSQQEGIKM
Procedure, shortened: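 TR-FRET kinase format: compound dose range 10 μM–25 pM equilibrated 60 min with human ALK5 and ULight-labelled topoisomerase 2α peptide in HEPES/MgCl2 buffer pH 7.5 with DTT. Reaction started with ATP (125 μM stock, 5× final), 60 min at 37° C, stopped with EDTA/Eu-anti-phospho antibody; pKi derived from pIC50 via Cheng-Prusoff.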

[2] = test system: TGF-β-stimulated SMAD3 phosphorylation in BEAS-2B cells; test: Cellular ALK5 potency assay, inhibition of TGF-β stimulated pSMAD3 formation in BEAS-2B cells; format: cell-based; conditions: Homo sapiens, inhibition of TGF-β (10 ng/mL) stimulated pSMAD3 formation, 1 hour compound incubation, read-out: BEAS2B pIC50 (converted)
Procedure, shortened: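 Phospho-SMAD3 was quantified by AlphaLISA in lysates of human lung epithelial BEAS-2B cells. Compound was added 1 h (37 °C, HEPES/BSA-supplemented HBSS) before a 30 min challenge with 10 ng/mL TGF-β. Values are pIC50 relative to stimulated cells without compound.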

SMILES	Ki [1]	IC50 [2]
C[C@@H]1CN(CCNc2cnc3ccc(-c4c[nH]nc4-c4cc(Cl)c(F)cc4F)nc3c2)C[C@H](C)N1 [Compound 6-74, 6-[3-(5-chloro-2,4-difluoro-phenyl)-1H-pyrazol-4-yl]-N-[2-[rac-(3R,5S)-3,5-dimethylpiperazin-1-yl]ethyl]-1,5-naphthyridin-3-amine]	0.0398 to 0.316 nM	25.1 to 158 nM
CN1CCC(N(C)c2cnc3ccc(-c4c[nH]nc4-c4cc(Cl)ccc4F)nc3c2)CC1 [Compound 1-37, 6-[3-(5-chloro-2-fluoro-phenyl)-1H-pyrazol-4-yl]-N-methyl-N-(1-methyl-4-piperidyl)-1,5-naphthyridin-3-amine]	0.0398 to 0.316 nM	25.1 to 158 nM
CC(C)N1CCN(CCNc2cnc3ccc(-c4c[nH]nc4-c4cc(Cl)ccc4F)nc3c2)CC1 [Compound 1-2]	0.0398 to 0.316 nM	≤ 20 nM
Cc1nn2c(c1-c1cnc3ccc(-c4c[nH]nc4-c4cc(Cl)ccc4F)nc3c1)NCCC2 [Compound 1-120, 2-[3-(5-chloro-2-fluoro-phenyl)-1H-pyrazol-4-yl]-7-(2-methyl-4,5,6,7-tetrahydropyrazolo[1,5-a]pyrimidin-3-yl)-1,5-naphthyridine]	0.398 to 3.16 nM	25.1 to 158 nM
Fc1ccc(Cl)cc1-c1n[nH]cc1-c1ccc2ncc(-c3ncc4n3CCNC4)cc2n1 [Compound 1-114, 2-[3-(5-chloro-2-fluoro-phenyl)-1H-pyrazol-4-yl]-7-(5,6,7,8-tetrahydroimidazo[1,5-a]pyrazin-3-yl)-1,5-naphthyridine]	0.0398 to 0.316 nM	25.1 to 158 nM
CN(C)C1CCN(c2cnc3ccc(-c4c[nH]nc4-c4cc(Cl)c(F)cc4F)nc3c2)CC1 [Compound 6-18, 1-[6-[3-(5-chloro-2,4-difluoro-phenyl)-1H-pyrazol-4-yl]-1,5-naphthyridin-3-yl]-N,N-dimethyl-piperidin-4-amine]	0.0398 to 0.316 nM	25.1 to 158 nM
O=C(O)[C@H]1CN(c2cnc3ccc(-c4c[nH]nc4-c4cc(Cl)c(F)cc4F)nc3c2)CCN1 [Compound 6-68, (2R)-4-[6-[3-(5-chloro-2,4-difluoro-phenyl)-1H-pyrazol-4-yl]-1,5-naphthyridin-3-yl]piperazine-2-carboxylic acid]	0.398 to 3.16 nM	200 to 1260 nM
C[C@@H]1CN(CCNc2cnc3ccc(-c4nc[nH]c4-c4cc(Cl)ccc4F)nc3c2)C[C@H](C)N1 [Compound 2-29, 6-(5-(5-chloro-2-fluorophenyl)-1H-imidazol-4-yl)-N-(2-((3S,5R)-3,5-dimethylpiperazin-1-yl)ethyl)-1,5-naphthyridin-3-amine]	0.0398 to 0.316 nM	25.1 to 158 nM
Fc1ccc(Cl)cc1-c1n[nH]cc1-c1ccc2ncc(NCC3CCCCN3)cc2n1 (centres unmarked) [Compound 1-23, 6-[3-(5-chloro-2-fluoro-phenyl)-1H-pyrazol-4-yl]-N-(2-piperidylmethyl)-1,5-naphthyridin-3-amine]	0.0398 to 0.316 nM	25.1 to 158 nM
NC1CN(c2cnc3ccc(-c4c[nH]nc4-c4cc(Cl)c(F)cc4F)nc3c2)C1 [Compound 6-30, 1-[6-[3-(5-chloro-2,4-difluoro-phenyl)-1H-pyrazol-4-yl]-1,5-naphthyridin-3-yl]azetidin-3-amine]	0.0398 to 0.316 nM	25.1 to 158 nM
Fc1cc(F)c(-c2n[nH]cc2-c2ccc3ncc(-c4ncn5c4NCC5)cc3n2)cc1Cl [Compound 6-55, 2-[3-(5-chloro-2,4-difluoro-phenyl)-1H-pyrazol-4-yl]-7-(2,3-dihydro-1H-imidazo[1,5-a]imidazol-7-yl)-1,5-naphthyridine]	0.0398 to 0.316 nM	25.1 to 158 nM
CNCCn1cc(-c2cnc3ccc(-c4nc[nH]c4-c4cc(Cl)c(F)cc4F)nc3c2)cn1 [Compound 7-4, 2-(4-(6-(5-(5-chloro-2,4-difluorophenyl)-1H-imidazol-4-yl)-1,5-naphthyridin-3-yl)-1H-pyrazol-1-yl)-N-methylethan-1-amine]	0.0398 to 0.316 nM	25.1 to 158 nM
CN(C)C1CCN(c2cnc3ccc(-c4nc[nH]c4-c4cc(Cl)ccc4F)nc3c2)C1 (racemic) [Compound 2-11, rac-(3S)-1-(6-[5-(5-chloro-2-fluoro-phenyl)-1H-imidazol-4-yl]-1,5-naphthyridin-3-yl]-N,N-dimethyl-pyrrolidin-3-amine]	0.0398 to 0.316 nM	≤ 20 nM
CN(C)CCN1CCN(c2cnc3ccc(-c4c[nH]nc4-c4cc(Cl)ccc4F)nc3c2)CC1 [Compound 1-71, 2-[4-[6-[3-(5-chloro-2-fluoro-phenyl)-1H-pyrazol-4-yl]-1,5-naphthyridin-3-yl]piperazin-1-yl]-N,N-dimethyl-ethanamine]	≤ 0.0316 nM	≤ 20 nM
CNCCn1cc(-c2cnc3ccc(-c4c[nH]nc4-c4cc(Cl)ccc4F)nc3c2)nn1 [Compound 1-131, 2-[4-[6-[3-(5-chloro-2-fluoro-phenyl)-1H-pyrazol-4-yl]-1,5-naphthyridin-3-yl]triazol-1-yl]-N-methyl-ethanamine]	0.0398 to 0.316 nM	≤ 20 nM
CN(C)C1CC=C(c2cnc3ccc(-c4c[nH]nc4-c4cc(Cl)ccc4F)nc3c2)CC1 (centres unmarked) [Compound 1-96, 4-(6-(3-(5-chloro-2-fluorophenyl)-1H-pyrazol-4-yl)-1,5-naphthyridin-3-yl)-N,N-dimethylcyclohex-3-en-1-amine]	≤ 0.0316 nM	≤ 20 nM
COC(=O)[C@@H]1CN(c2cnc3ccc(-c4c[nH]nc4-c4cc(Cl)ccc4F)nc3c2)CCN1 [Compound 1-59, methyl (2S)-4-[6-[3-(5-chloro-2-fluoro-phenyl)-1H-pyrazol-4-yl]-1,5-naphthyridin-3-yl]piperazine-2-carboxylate]	0.398 to 3.16 nM	25.1 to 158 nM

Second part, led by results:

Ki [1]	SMILES	IC50 [2]
0.398 to 3.16 nM	COCc1cccc(-c2n[nH]cc2-c2ccc3ncc(N4CCC(N5CCN(C)CC5)CC4)cc3n2)c1 [Compound 14-2, 2-[3-(3-(methoxymethyl)phenyl]-1H-pyrazol-4-yl]-7-[4-(4-methylpiperazin-1-yl)-1-piperidyl]-1,5-naphthyridine]	25.1 to 158 nM
0.398 to 3.16 nM	Clc1cccc(-c2[nH]cnc2-c2ccc3ncc(NCCN4CCNCC4)cc3c2)c1 [Compound 24-4, 6-[5-(3-chlorophenyl)-1H-imidazol-4-yl]-N-(2-piperazin-1-ylethyl)quinolin-3-amine]	25.1 to 158 nM
0.0398 to 0.316 nM	Fc1ccc(Cl)cc1-c1n[nH]cc1-c1ccc2ncc(-c3cn[nH]c3)cc2c1 [Compound 16-2, 6-[3-(5-chloro-2-fluoro-phenyl)-1H-pyrazol-4-yl]-3-(1H-pyrazol-4-yl)quinoline]	≤ 20 nM
0.0398 to 0.316 nM	CNCCn1cc(-c2cnc3ccc(-c4nc[nH]c4-c4cccc(COC)c4)nc3c2)cn1 [Compound 15-3, 2-(4-(6-(5-(3-(methoxymethyl)phenyl)-1H-imidazol-4-yl)-1,5-naphthyridin-3-yl)-1H-pyrazol-1-yl)-N-methylethan-1-amine]	25.1 to 158 nM
0.0398 to 0.316 nM	Fc1cc(F)c(-c2[nH]cnc2-c2ccc3ncc(NCCN4CCNCC4)cc3c2)cc1Cl [Compound 22-5, 6-[5-(5-chloro-2,4-difluoro-phenyl)-1H-imidazol-4-yl]-N-(2-piperazin-1-ylethyl)quinolin-3-amine]	25.1 to 158 nM
0.0398 to 0.316 nM	CNCCn1cc(-c2cnc3ccc(-c4c[nH]nc4-c4cccc(COC)c4)nc3c2)cn1 [Compound 14-8, 2-(4-(6-(3-(3-(methoxymethyl)phenyl)-1H-pyrazol-4-yl)-1,5-naphthyridin-3-yl)-1H-pyrazol-1-yl)-N-methylethan-1-amine]	25.1 to 158 nM
0.398 to 3.16 nM	CNC1CCN(c2cnc3ccc(-c4c[nH]nc4-c4ccc(F)c(F)c4)nc3c2)CC1 [Compound 8-6, 1-[6-[3-(3,4-difluorophenyl)-1H-pyrazol-4-yl]-1,5-naphthyridin-3-yl]-N-methyl-piperidin-4-amine]	25.1 to 158 nM
≤ 0.0316 nM	CNCCn1cc(-c2cnc3ccc(-c4nc[nH]c4-c4cccc(Cl)c4)cc3c2)cn1 [Compound 24-1, 2-(4-(6-(5-(3-chlorophenyl)-1H-imidazol-4-yl)quinolin-3-yl)-1H-pyrazol-1-yl)-N-methylethan-1-amine]	≤ 20 nM
0.0398 to 0.316 nM	Fc1ccc(Cl)cc1-c1[nH]cnc1-c1ccc2ncc(-c3cn[nH]c3)cc2c1 [Compound 17-1, 6-(5-(5-chloro-2-fluorophenyl)-1H-imidazol-4-yl)-3-(1H-pyrazol-4-yl)quinoline]	≤ 20 nM
≤ 0.0316 nM	NCCn1cc(-c2cnc3ccc(-c4c[nH]nc4-c4ccc(F)c(F)c4)nc3c2)cn1 [Compound 8-17, 2-[4-[6-[3-(3,4-difluorophenyl)-1H-pyrazol-4-yl]-1,5-naphthyridin-3-yl]pyrazol-1-yl]ethanamine]	≤ 20 nM
0.0398 to 0.316 nM	CC(C)N1CCN(CCNc2cnc3ccc(-c4c[nH]nc4-c4cccc(Cl)c4)nc3c2)CC1 [Compound 28-1, 6-(3-(3-chlorophenyl)-1H-pyrazol-4-yl)-N-(2-(4-isopropylpiperazin-1-yl)ethyl)-1,5-naphthyridin-3-amine]	25.1 to 158 nM
